# From ChEMBL document CHEMBL1782045, “Discovery, synthesis, and investigation of the antitumor activity of novel piperazinylpyrimidine derivatives” (Eur J Med Chem, 2011)
# pKd: −log10 of the molar value.
# Tests used:
# [1] = target: T1, Hepatocyte growth factor receptor (Homo sapiens, UniProt P08581)
# Description: Binding affinity to human unphosphorylated c-MET
# [2] = target: T1, Hepatocyte growth factor receptor; remark: listed apart in the source
# Description: Binding affinity to human phosphorylated c-MET
# T1 sequence (P08581 whole entry): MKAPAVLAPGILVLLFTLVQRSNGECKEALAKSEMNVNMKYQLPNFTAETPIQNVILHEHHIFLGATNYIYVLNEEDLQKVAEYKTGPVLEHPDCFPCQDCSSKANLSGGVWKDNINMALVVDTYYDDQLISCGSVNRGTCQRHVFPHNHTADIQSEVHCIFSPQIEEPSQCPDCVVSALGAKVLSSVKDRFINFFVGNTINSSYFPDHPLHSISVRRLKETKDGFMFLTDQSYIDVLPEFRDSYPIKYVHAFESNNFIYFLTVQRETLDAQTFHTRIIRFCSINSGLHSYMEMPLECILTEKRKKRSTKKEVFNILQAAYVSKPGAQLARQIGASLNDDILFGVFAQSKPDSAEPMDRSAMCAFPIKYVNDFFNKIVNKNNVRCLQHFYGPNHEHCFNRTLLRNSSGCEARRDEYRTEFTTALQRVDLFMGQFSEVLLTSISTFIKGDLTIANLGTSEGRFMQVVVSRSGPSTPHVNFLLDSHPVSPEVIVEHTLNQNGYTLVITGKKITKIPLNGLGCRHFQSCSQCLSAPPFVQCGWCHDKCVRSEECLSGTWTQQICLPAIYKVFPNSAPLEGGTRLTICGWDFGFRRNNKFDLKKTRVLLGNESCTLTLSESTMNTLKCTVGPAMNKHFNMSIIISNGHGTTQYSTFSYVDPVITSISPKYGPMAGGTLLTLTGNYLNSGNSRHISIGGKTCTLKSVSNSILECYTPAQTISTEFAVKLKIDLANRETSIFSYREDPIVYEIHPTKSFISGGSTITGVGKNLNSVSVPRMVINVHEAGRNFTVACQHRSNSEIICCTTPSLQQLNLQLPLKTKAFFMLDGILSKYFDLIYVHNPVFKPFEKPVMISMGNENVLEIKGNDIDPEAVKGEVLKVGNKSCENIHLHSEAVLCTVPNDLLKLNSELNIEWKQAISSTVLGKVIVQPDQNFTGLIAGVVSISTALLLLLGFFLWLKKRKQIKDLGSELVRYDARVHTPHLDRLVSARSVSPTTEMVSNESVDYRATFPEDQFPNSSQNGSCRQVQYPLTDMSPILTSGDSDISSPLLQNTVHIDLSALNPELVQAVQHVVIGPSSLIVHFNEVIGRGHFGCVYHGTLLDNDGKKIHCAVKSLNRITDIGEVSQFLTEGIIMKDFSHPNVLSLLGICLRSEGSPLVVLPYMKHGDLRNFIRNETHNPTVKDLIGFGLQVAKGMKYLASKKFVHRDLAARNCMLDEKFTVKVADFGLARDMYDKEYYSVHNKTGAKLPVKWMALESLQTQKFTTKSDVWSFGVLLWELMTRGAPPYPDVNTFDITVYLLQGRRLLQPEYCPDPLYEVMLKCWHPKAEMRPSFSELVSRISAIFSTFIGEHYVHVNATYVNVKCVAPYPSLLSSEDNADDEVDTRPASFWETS
smiles,measurement,setting,value
CN(C[C@@H]1COCCO1)S(=O)(=O)Nc1ccc2ccc3ncc(-c4cnn(C)c4)cc3c(=O)c2c1 [MK-2461],pKd,[1],7.57
same,pKd,[2],8.36
